Data from US20090082337A1, “Compositions Comprising Quinolone and Methods for Treating or Controlling Infections” (priority 2007, published 2009).
Converted amounts (≈) assume the structure as drawn. Read-outs that look alike come from different tables or passages of the source.

What was measured:
Type in all cases: cell-based
[1] = test system: Acinetobacter calcoaceticus (IFO 12552); assay: In vitro anti-bacterial activity (MIC90), Gram-negative bacteria; settings: IFO12552, Gram-negative reference strain
Procedure: (§1) In yet another aspect, said another quinolone has a MIC90 value for a Gram-negative bacterium that is lower than that of the fluoroquinolone having Formula I, II, III, IV, V, VI, VII, or VIII for the same bacterium, said fluoroquinolone being included in the composition. MIC90 is the minimum concentration of the active compound required to inhibit ninety percent of the growth of a specified pathogen, in μg/ml.
(§2) Anti-bacterial activity of the compound having Formula IV was tested against several Gram-negative reference bacteria strains and compared to the anti-bacterial activity of three commercially available antibiotics (nadifloxacin, ofloxacin, and sparfloxacin). The results are shown in Table 2 as MIC90 values (minimum concentration of the active compound required to inhibit ninety percent of the growth of a specified pathogen, in μg/ml).

[2] = test system: Enterobacter aerogenes (IFO 13534); assay: as above; settings: Klebsiella aerogenes, IFO13534, Gram-negative reference strain
Procedure: as §1, §2

Escherichia coli (O-1) = assay: as above; settings: Gram-negative reference strain
Procedure: as §1, §2

[3] = test system: Klebsiella pneumoniae (IFO 13541); assay: as above; settings: IFO13541, Gram-negative reference strain
Procedure: as §1, §2

[4] = test system: Proteus mirabilis (IFO 13300); assay: as above; settings: IFO13300, Gram-negative reference strain
Procedure: as §1, §2

Proteus rettgeri = assay: as above; settings: Providencia rettgeri, Gram-negative reference strain
Procedure: as §1, §2

[5] = test system: Pseudomonas aeruginosa (ATCC 27853); assay: as above; settings: ATCC27853, Gram-negative reference strain
Procedure: as §1, §2

[6] = test system: Pseudomonas aeruginosa (IFO 13736); assay: as above; settings: IFO13736, Gram-negative reference strain
Procedure: as §1, §2

[7] = test system: Serratia marcenscens (NHL); assay: as above; settings: Gram-negative reference strain
Procedure: as §1, §2

Shigella flexneri (2b) = assay: as above; settings: Gram-negative reference strain
Procedure: as §1, §2

[8] = test system: Salmonella typhimurium (TD); assay: as above; settings: Salmonella enterica, Gram-negative reference strain
Procedure: Anti-bacterial activity of the compound having Formula IV was tested against several Gram-negative reference bacteria strains and compared to the anti-bacterial activity of three commercially available antibiotics (nadifloxacin, ofloxacin, and sparfloxacin).

[9] = test system: Streptococcus pyogenes (Cook); assay: In vitro anti-bacterial activity (MIC90), Gram-positive bacteria; settings: Gram-positive reference strain
Procedure: as §1, with “μg/ml. Anti-bacterial activity of the compound having Formula […] was tested against several Gram-positive reference bacteria strains and compared to the anti-bacterial activity of three commercially available antibiotics (nadifloxacin, ofloxacin, and sparfloxacin).” for “μg/ml.”

[10] = test system: Staphylococcus aureus (ATCC 33591); assay: In vitro anti-bacterial activity (MIC90), methicillin-resistant Staphylococcus aureus isolates; settings: ATCC33591; methicillin-resistant Staphylococcus aureus (ATCC 33591)
Procedure: as §1
(§3) Anti-bacterial activity of the compound having Formula IV was tested against some methicillin-resistant Staphylococcus aureus bacteria strains and compared to the anti-bacterial activity of three commercially available antibiotics (nadifloxacin, ofloxacin, and sparfloxacin).

[11] = test system: Staphylococcus aureus (ATCC 33592); assay: as above; settings: ATCC33592; methicillin-resistant Staphylococcus aureus (ATCC 33592)
Procedure: as §1, §3

[12] = test system: Staphylococcus aureus (ATCC 33593); assay: as above; settings: ATCC33593; methicillin-resistant Staphylococcus aureus (ATCC 33593)
Procedure: as §1, §3

[13] = test system: Staphylococcus aureus (No. 395); assay: as above; settings: methicillin-resistant Staphylococcus aureus (No. 395)
Procedure: as §1, §3

[14] = test system: Staphylococcus aureus (No. 415); assay: as above; settings: methicillin-resistant Staphylococcus aureus (No. 415)
Procedure: as §1, §3

[15] = test system: Staphylococcus aureus (No. 419); assay: as above; settings: methicillin-resistant Staphylococcus aureus (No. 419)
Procedure: as §1, §3

[16] = test system: Staphylococcus aureus (No. 420); assay: as above; settings: methicillin-resistant Staphylococcus aureus (No. 420)
Procedure: as §1, §3

[17] = test system: Staphylococcus aureus (No. 421); assay: as above; settings: methicillin-resistant Staphylococcus aureus (No. 421)
Procedure: as §1, §3

[18] = test system: Clostridium perfringens (KZ 210); assay: microbe, parasite or virus in culture
[19] = test system: Peptostreptococcus micros (GIFU 7824); assay: In vitro anti-bacterial activity (MIC90), anaerobic bacteria; settings: Parvimonas micra, anaerobic reference bacteria
[20] = test system: Peptostreptococcus magnum (GAI 0664); assay: as above; settings: anaerobic reference bacteria
[21] = test system: Propionibacterium acnes (GAI 5419); assay: as above; settings: Cutibacterium acnes, anaerobic reference bacteria
[22] = test system: Propionibacterium acnes (ATCC 11828); assay: as above; settings: Cutibacterium acnes, ATCC11828, anaerobic reference bacteria
[23] = test system: Bacteroides fragillis (GAI 0675); assay: as above; settings: anaerobic reference bacteria
[24] = test system: Bacteroides thetaiotaomicron (GAI 0659); assay: as above
[25] = test system: Bacteroides vulgatus (GAI 0673); assay: as above; settings: Phocaeicola vulgatus, anaerobic reference bacteria
[26] = test system: Veillonella parvula (GAI 5602); assay: as above; settings: anaerobic reference bacteria

SMILES | MIC90 [1] | MIC90 [2] | MIC90 (Escherichia coli (O-1)) | MIC90 [3] | MIC90 [4] | MIC90 (Proteus rettgeri) | MIC90 [5] | MIC90 [6] | MIC90 [7] | MIC90 (Shigella flexneri (2b)) | MIC90 [8] | MIC90 [9] | MIC90 [10] | MIC90 [11] | MIC90 [12] | MIC90 [13] | MIC90 [14] | MIC90 [15] | MIC90 [16] | MIC90 [17] | other results
C[C@@H]1CN(c2c(F)c(N)c3c(=O)c(C(=O)O)cn(C4CC4)c3c2F)C[C@H](C)N1 [Sparfloxacin, sparfloxacin] | 0.024 mg/L (≈ 0.0612 µM) | 0.1 mg/L (≈ 0.255 µM) | 0.012 mg/L (≈ 0.0306 µM) | 0.012 mg/L (≈ 0.0306 µM) | 0.1 mg/L (≈ 0.255 µM) | 0.2 mg/L (≈ 0.51 µM) | 0.78 mg/L (≈ 1.99 µM) | 0.78 mg/L (≈ 1.99 µM) | 0.2 mg/L (≈ 0.51 µM) | 0.006 mg/L (≈ 0.0153 µM) | 0.012 mg/L (≈ 0.0306 µM) | 0.39 mg/L (≈ 0.994 µM) | 0.024 mg/L (≈ 0.0612 µM) | 0.1 mg/L (≈ 0.255 µM) | 0.024 mg/L (≈ 0.0612 µM) | 0.05 mg/L (≈ 0.127 µM) | 0.2 mg/L (≈ 0.51 µM) | 1.56 mg/L (≈ 3.98 µM) | 0.78 mg/L (≈ 1.99 µM) | 0.39 mg/L (≈ 0.994 µM) | MIC90 [18]: 0.39 mg/L (≈ 0.994 µM); MIC90 [19]: 0.78 mg/L (≈ 1.99 µM); MIC90 [20]: 0.1 mg/L (≈ 0.255 µM); MIC90 [21]: 0.39 mg/L (≈ 0.994 µM); MIC90 [22]: 0.78 mg/L (≈ 1.99 µM); MIC90 [23]: 0.78 mg/L (≈ 1.99 µM); MIC90 ([24]; Bacteroides thetaiotaomicron): 0.78 mg/L (≈ 1.99 µM); MIC90 [25]: 0.78 mg/L (≈ 1.99 µM); MIC90 [26]: 0.2 mg/L (≈ 0.51 µM)
CC1COc2c(N3CCN(C)CC3)c(F)cc3c(=O)c(C(=O)O)cn1c23 (centres unmarked) [Ofloxacin, ofloxacin] | 0.39 mg/L (≈ 1.08 µM) | 0.2 mg/L (≈ 0.553 µM) | 0.05 mg/L (≈ 0.138 µM) | 0.024 mg/L (≈ 0.0664 µM) | 0.05 mg/L (≈ 0.138 µM) | 0.2 mg/L (≈ 0.553 µM) | 3.13 mg/L (≈ 8.66 µM) | 1.56 mg/L (≈ 4.32 µM) | 0.1 mg/L (≈ 0.277 µM) | 0.006 mg/L (≈ 0.0166 µM) | 0.05 mg/L (≈ 0.138 µM) | 0.78 mg/L (≈ 2.16 µM) | 0.05 mg/L (≈ 0.138 µM) | 0.39 mg/L (≈ 1.08 µM) | 0.2 mg/L (≈ 0.553 µM) | 0.2 mg/L (≈ 0.553 µM) | 0.78 mg/L (≈ 2.16 µM) | 3.13 mg/L (≈ 8.66 µM) | 1.56 mg/L (≈ 4.32 µM) | 1.56 mg/L (≈ 4.32 µM) | MIC90 [18]: 0.78 mg/L (≈ 2.16 µM); MIC90 [19]: 0.78 mg/L (≈ 2.16 µM); MIC90 [20]: 0.39 mg/L (≈ 1.08 µM); MIC90 [21]: 0.78 mg/L (≈ 2.16 µM); MIC90 [22]: 1.56 mg/L (≈ 4.32 µM); MIC90 [23]: 1.56 mg/L (≈ 4.32 µM); MIC90 ([24]; Bacteroides thetaiotaomicron): 3.13 mg/L (≈ 8.66 µM); MIC90 [25]: 3.13 mg/L (≈ 8.66 µM); MIC90 [26]: 0.39 mg/L (≈ 1.08 µM)
CC1CCc2c(N3CCC(O)CC3)c(F)cc3c(=O)c(C(=O)O)cn1c23 (centres unmarked) [Nadifloxacin, nadifloxacin] | 0.78 mg/L (≈ 2.16 µM) | 1.56 mg/L (≈ 4.33 µM) | 0.2 mg/L (≈ 0.555 µM) | 0.1 mg/L (≈ 0.277 µM) | 0.1 mg/L (≈ 0.277 µM) | 0.39 mg/L (≈ 1.08 µM) | 6.25 mg/L (≈ 17.3 µM) | 3.13 mg/L (≈ 8.69 µM) | 1.56 mg/L (≈ 4.33 µM) | 0.006 mg/L (≈ 0.0166 µM) | 0.2 mg/L (≈ 0.555 µM) | 0.78 mg/L (≈ 2.16 µM) | 0.006 mg/L (≈ 0.0166 µM) | 0.05 mg/L (≈ 0.139 µM) | 0.024 mg/L (≈ 0.0666 µM) | 0.024 mg/L (≈ 0.0666 µM) | 0.1 mg/L (≈ 0.277 µM) | 0.39 mg/L (≈ 1.08 µM) | 0.78 mg/L (≈ 2.16 µM) | 0.78 mg/L (≈ 2.16 µM) | MIC90 [18]: 0.2 mg/L (≈ 0.555 µM); MIC90 [19]: 0.39 mg/L (≈ 1.08 µM); MIC90 [20]: 0.2 mg/L (≈ 0.555 µM); MIC90 [21]: 0.2 mg/L (≈ 0.555 µM); MIC90 [22]: 0.78 mg/L (≈ 2.16 µM); MIC90 [23]: 1.56 mg/L (≈ 4.33 µM); MIC90 ([24]; Bacteroides thetaiotaomicron): 1.56 mg/L (≈ 4.33 µM); MIC90 [25]: 0.78 mg/L (≈ 2.16 µM); MIC90 [26]: 0.78 mg/L (≈ 2.16 µM)
N[C@@H]1CCCCN(c2c(F)cc3c(=O)c(C(=O)O)cn(C4CC4)c3c2Cl)C1 [Compound Having Formula IV] | 0.39 mg/L | 0.39 mg/L | 0.1 mg/L | 0.024 mg/L | 0.1 mg/L | 0.39 mg/L | 1.56 mg/L | 1.56 mg/L | 0.2 mg/L | 0.006 mg/L | 0.05 mg/L | 0.1 mg/L | 0.012 mg/L | 0.05 mg/L | 0.012 mg/L | 0.006 mg/L | 0.05 mg/L | 0.1 mg/L | 0.1 mg/L | 0.2 mg/L | MIC90 [18]: 0.2 mg/L; MIC90 [19]: 0.2 mg/L; MIC90 [20]: 0.05 mg/L; MIC90 [21]: 0.2 mg/L; MIC90 [22]: 0.39 mg/L; MIC90 [23]: 0.1 mg/L; MIC90 ([24]; Bacteroides thetaiotaomicron (GAI 0659), anaerobic reference bacteria, read-out: MIC90): 0.2 mg/L; MIC90 [25]: 0.1 mg/L; MIC90 [26]: 0.1 mg/L
